From patent US20250387404A1, “FORMULATIONS AND METHODS FOR TREATING EPIDERMOLYSIS BULLOSA SIMPLEX AND RELATED CONDITIONS” (RUTGERS, THE STATE UNIVERSITY OF NEW JERSEY, priority 2022, published 2025)
“Also recorded” adds a separate entry of the source. Where two headings read alike, the source gives them in different places.

Tests used:
[1] = test system: normal human keratinocytes (NHK); assay: Electrochemical impedance spectroscopy on multielectrode arrays; type: cell-based; settings: 24 h treatment; read-out: EC50 (impedance concentration response curve)
Description: Skin samples were obtained for diagnostic purposes. After written informed consent, primary keratinocytes were isolated from the remaining tissue. Immortalized human control (NHK, normal human keratinocytes) and EBS keratinocytes (K14.R125C, K14.R125G, K14.N123S, K14.Y415H, K5.G138E/L175F and K5.E477D) were generated (Has et al. (2018) The Position of Targeted Next-generation Sequencing in Epidermolysis Bullosa Diagnosis. Acta Dermato-Venereologica 98:437-40; He Y, Maier K, Leppert J, Hausser I, Schwieger-Briel A, Weibel L, et al. (2016) Monoallelic Mutations in the Translation Initiation Codon of KLHL24 Cause Skin Fragility. Am J Hum Genet 99:1395-404). Keratinocytes were grown in low calcium Gibco™ Keratinocyte-SFM Medium supplemented with L-glutamine, EGF and BPE (LCM, Thermo Fisher Scientific) and cultured at 37° C., 5% CO2 and 90% humidity. […]
Impedimetric measurements on NHK and K14.R125C keratinocytes were performed as previously described. […] Impedance spectra (500 Hz-5 MHz) were automatically recorded every 30 min using the impedance measurement platform based on an Agilent 4294A high-precision impedance analyzer (Agilent Technologies) and the self-developed controlling software IMAT advanced. […] The cell signal (relative impedance) was determined with the self-developed analysis software IDAT v3.7.2.

desmoplakin (DSP) = assay: Desmoplakin localization by immunofluorescence microscopy; type: cell-based, human; settings: 1.2 mM CaCl2, vs vehicle-treated cells
Description: Human keratinocytes grown on coverslips were fixed for 5 min in methanol (−20° C.) and 30 sec in acetone (−20° C.). Primary antibodies were diluted in 1% (w/v) BSA in TBS and incubated overnight at 4° C. in a humid chamber. The next day, coverslips were washed in TBS and incubated with the fluorophore-conjugated secondary antibody for 30 min at RT in the dark. DNA was stained with DAPI. Finally, coverslips were washed three times in TBS, rinsed briefly in aqua bidest and mounted with ProLong® Gold antifade reagent (Invitrogen). Images or Z-stacks were acquired with a confocal LSM 780 (Carl Zeiss) equipped with 40×/1.3 NA or 63×/1.4 NA oil immersion objectives and an AxioCam Mrm (Carl Zeiss). Image analysis and maximum intensity projections of Z-stacks was performed using Zen 2012 Blue software (Carl Zeiss). ImageJ was used for image processing.

K14.R125G keratinocytes = assay: Epithelial sheet assay (dispase assay); type: cell-based, human; settings: 1 μM, high calcium medium, 24 h
Description: (§1) Prior to the assay, cells were washed twice with 1.2 mM Ca^2+ PBS and incubated for 30 min at 37° C. with Dispase II (Roche Diagnostics, 9 mg/ml in 1:2 HEPES buffer:keratinocytes medium, 2 mM Ca^2+). Free-floating cell sheets were transferred to a 15 ml Falcon tube containing 5 ml 1.2 mM Ca^2+ PBS and subjected to 25 rpm overhead rotation (WiseMix overhead rotator, Witeg Labortechnik, Germany) for 1 min at room temperature. Image acquisition was done using Nikon SMZ 1500 binocular and image processing by ImageJ.

K14.R125C keratinocytes [2] = assay: Epithelial sheet assay (dispase assay); type: cell-based, human; settings: 1 μM, high calcium medium, 24 h, vs vehicle-treated monolayers
Description: as §1

K18 and K8 [3] = settings: based on prior studies; cited from earlier work
K14.R125C keratinocytes [4] = assay: Keratin aggregates by K5 immunofluorescence microscopy; type: cell-based, human; settings: 0.8 μM PKC412, 24 h; DMSO-treated cells mean=56%
Description: Skin samples were obtained for diagnostic purposes. After written informed consent, primary keratinocytes were isolated from the remaining tissue. […] Keratinocytes were grown in low calcium Gibco™ Keratinocyte-SFM Medium supplemented with L-glutamine, EGF and BPE (LCM, Thermo Fisher Scientific) and cultured at 37° C., 5% CO2 and 90% humidity. To induce cell-cell contacts, LCM was changed to high calcium medium (HCM, 1.2 mM CaCl2) and cells were incubated for 24 h.

[5] = healthy volunteers, single oral dose (50 mg) as microemulsion; cited from earlier work
K18 R90C mice [6] = assay: Fas-induced liver injury; type: in vivo, mouse; settings: for increase in serum alanine aminotransferase (ALT) level after Fas treatment: single 1× pretreatment (PKC412 25 mg/kg, PP2 1 mg/kg, Vem 1 mg/kg), Fas antibody 0.25 μg/g; for hepatocyte keratin filament organization: PP2 1 mg/kg ip daily 4d
Description: (§3) All mouse experiments were performed using a protocol approved by Rutgers University Institutional Animal Care and Use Committee. Previously described 4-6 weeks-old F22 male and female mice that express the human K18 R90C mutant (FVB/N background) were used. […] For immunofluorescence experiments, mouse livers were collected after CO2 euthanasia and embedded in optimum-cutting-temperature compound then stored (−80° C.). For Fas experiments, mice were treated by intraperitoneal administration of Fas antibody (0.15 μg/g body weight; BD Pharmingen). After 5 h, mice were sacrificed followed by collection of blood and liver. Livers were fixed with 10% formalin and analyzed by hematoxylin-eosin (H&E) staining or TUNEL assay. A hemorrhage score was calculated using QuPath (Quantitative Pathology & Bioimage Analysis) and ImageJ software. Apoptosis was estimated using TUNEL assay detection kit (ApopTag Peroxidase In Situ Apoptosis; Sigma Aldrich). Fluorescence images were acquired with the same exposure time and used to count the apoptotic nuclei. Serum alanine aminotransferase (ALT) levels were determined using the Liquid ALT Reagent Set (Pointe Scientific). For the acetaminophen (APAP) experiments, the liver histopathology score was determined using a 0-4 scoring system. Scoring was conducted by two scorers blinded to treatment conditions, and the average score was used.

[7] = test system: RXXpS/pT AGC-kinase motif, P-K17 S44, P-DSP S165/S166, P-DSP S2849; assay: Immunoblot with phospho-epitope specific antibodies; type: cell-based, human
Description: Skin samples were obtained for diagnostic purposes. After written informed consent, primary keratinocytes were isolated from the remaining tissue. Immortalized human control (NHK, normal human keratinocytes) and EBS keratinocytes (K14.R125C, K14.R125G, K14.N123S, K14.Y415H, K5.G138E/L175F and K5.E477D) were generated (Has et al. (2018) The Position of Targeted Next-generation Sequencing in Epidermolysis Bullosa Diagnosis. Acta Dermato-Venereologica 98:437-40; He Y, Maier K, Leppert J, Hausser I, Schwieger-Briel A, Weibel L, et al. (2016) Monoallelic Mutations in the Translation Initiation Codon of KLHL24 Cause Skin Fragility. Am J Hum Genet 99:1395-404). Keratinocytes were grown in low calcium Gibco™ Keratinocyte-SFM Medium supplemented with L-glutamine, EGF and BPE (LCM, Thermo Fisher Scientific) and cultured at 37° C., 5% CO2 and 90% humidity. To induce cell-cell contacts, LCM was changed to high calcium medium (HCM, 1.2 mM CaCl2) and cells were incubated for 24 h.
To separate proteins under denaturing conditions, sodium dodecyl sulfate polyacrylamide gel electrophoresis (SDS-PAGE) was performed. Proteins were transferred to nitrocellulose membranes (VWR) using a semi-dry blotter (Armin Baack Labortechnik). Membranes were blocked using 3% (w/v) skim milk/TBS with Tween (TBST) or 3% (w/v) bovine serum albumin (BSA)/TBST and subsequently probed with the appropriate antibodies. Chemiluminescence was detected using ChemoCam Imager (Intas). Band intensity was quantified using ImageJ software.

[8] = K18 R90C mice, PP2 1 mg/kg intraperitoneally daily for 4d, female and male
Description: as §3

[9] = test system: GFP-K18 R90C lentivirus-transduced A549 cells; assay: Keratin dots-to-filaments assay (high-throughput screen and validation); type: cell-based, human; settings: 5 μM, 48 h
Description: The screening strategy was performed as described. In brief, human A549 lung adenocarcinoma cells (American Type Culture Collection) were seeded into six-well plates overnight and then transduced with K8 WT and either the GFP-tagged K18 WT or GFP-tagged K18 R90C lentivirus for 2d. A549 cells were selected for the screening assay because of their high transduction efficiency and readily visualized keratin filaments. The transduced cells were seeded into 384-well plates for 1d followed by addition of compounds from the Navigator Pathways (Center for Chemical Genomics, University of Michigan). After 48 h, cells were fixed counterstained with 4′,6-diamidino-2-phenylindole (DAPI; Invitrogen). Images were taken with the Image Xpress Micro XLS High Content Imaging System then analyzed using MetaXpress software (Molecular Devices). Compounds that decrease the number of keratin dots/cell and promote keratin filament formation were selected for secondary validation. 945 compounds from the Navigator Pathways library were screened. The library consists of several daughter sets that cover a range of pathways including Autophagy, Wnt, Epigenetics, Protein Kinases, Proteases, Redox, Cannabinoids, and Natural Products.

[10] = test system: GFP-K18 R90C transduced A549 cells; assay: IFN-γ/FasL-induced apoptosis in cultured cells; type: cell-based, human
Description: (§2) A549 cells were cultured using Ham's F-12K medium (Thermo Fisher Scientific) supplemented with 10% fetal bovine serum (Sigma Aldrich) and 1% penicillin and 10,000 U/mL streptomycin (Life Technologies).

[11] = PP2 content in liver and serum by UPLC-UV; type: in vivo, mouse
Description: Mice were sacrificed and livers were harvested at the indicated times. […] The column was washed once with 1 mL 100% methanol and eluted with 1 mL 5% NH4OH in methanol. […] The evaporated sample was resuspended in […] injection solvent [80% (5% ammonium hydroxide in methanol)+20% (10 mM ammonium formate+0.1% formic acid)], and […] was injected for ultra-performance liquid chromatography (UPLC). […] The supernatant was transferred to new tubes then processed further for SPE and UPLC exactly as carried out for the liver tissue extracts.
A Waters ACQUITY UPLC system equipped with Empower software and H-Class PLUS (CH-A) Core was used. […] The column was eluted at flow rate of 0.5 ml/min with linear gradients of solvents A and B (A, 10 mM ammonium formate, 0.1% formic acid in water; B, 0.1% formic acid in methanol).

K18 and K8 [12] = assay: K8/K18 phosphorylation by mass spectrometry and immunoblot; type: cell-based, human
Description: Cell and liver samples were solubilized using a Dounce homogenizer in 2% SDS-containing PBS supplemented with protease inhibitor (Thermo Fisher Scientific), then sonicated 80× (is pulse, intensity 70) (Fisher Scientific; Model: FB50). Lysates were pelleted (16,000 g×10 min/20° C.) and the supernatant was used for subsequent analysis. Equal amounts of protein were separated by SDS-polyacrylamide gel electrophoresis (PAGE) then transferred to polyvinylidene fluoride membranes (Bio-Rad) followed by immunoblotting. For immunoprecipitation, K18 R90C-transduced A549 cells were homogenized in PBS containing 1% Nonidet P-40 (NP40), protease inhibitors, and okadaic acid (Cayman Chemical; 1 μg/mL). […] For mass spectrometry, conjugated beads were suspended in PBS-buffered 8M urea to yield ˜6 g (in 60 μl urea-containing buffer). Samples were separated SDS-PAGE, followed by in-gel tryptic digestion then LC-MS/MS analysis. Peptides were identified by the Mass Spectrometry Facility at Rutgers University.

K18 R90C mice [13] = test system: K18 R90C mice
Description: as §3

A549 cells = settings: PP2 10 μM, A549 cells expressing K18 R90C
Description: as §2

[14] = PKC412 25 mg/kg ip daily 4d, male and female, Fas challenge
[15] = female mice, PP2 1 mg/kg ip 4d, Fas antibody 0.15 μg/g 5 h
[16] = male mice, PP2 1 mg/kg ip 4d, Fas antibody 0.15 μg/g 5 h
[17] = K18 R90C-expressing A549 cells, mass spectrometry, PP2 vs DMSO

4′-N-benzoylstaurosporine [PKC412]
EC50 [1]: 84 nM | DSP at sites of cell-cell contacts (desmoplakin (DSP)): significant increase | fragility of mutant epithelial sheets (K14.R125G keratinocytes): rescued fragility | epithelial monolayer integrity after rotation (K14.R125C keratinocytes [2]): remained fully intact | K18 S34 and K8 S432 phosphorylation (K18 and K8 [3]): no effect | keratin aggregate-containing cells (mean) (K14.R125C keratinocytes [4]): 13% | tolerability, single oral dose [5]: well tolerated | protection from Fas-induced liver injury, male versus female (K18 R90C mice [6]; PKC412 25 mg/kg ip daily 4d, Fas antibody 0.15 μg/g 5 h): equally protects both sexes | ALT levels (K18 R90C mice [6]; [14]): significantly reduced | extent of hemorrhage (K18 R90C mice [6]; [14]): significantly reduced | increase in serum alanine aminotransferase (ALT) level after Fas treatment (K18 R90C mice [6]; male mice): significantly reduced | phosphorylation at AGC-kinase motif RXXpS/pT ([7]; EBS K14.R125C cells vs vehicle-treated): significant reduction in phosphorylation | K17 phosphorylation at P-S44 ([7]; NHK and K14.R125C cells vs vehicle): significantly reduced | DSP phosphorylation at S165 and S166 ([7]; vs DMSO-treated cells): significantly reduced | DSP phosphorylation at S2849 ([7]; vs DMSO-treated cells): significantly reduced

CC(C)(C)n1nc(-c2ccc(Cl)cc2)c2c(N)ncnc21 [PP2, 1-tert-butyl-3-(4-chlorophenyl)-1H-pyrazolo[3,4-d]pyrimidin-4-amine]
body or liver weight [8]: does not have an effect; also recorded: no significant effect | percentage of cells with keratin mutant aggregates [9]: significantly decreased | induction of apoptosis under basal non-Fas condition (TUNEL) ([10]; 5 μM, no Fas challenge): does not induce apoptosis | cleaved caspases 3 and 7 ([10]; PP2 5 μM 48 h then IFN-γ and FasL): decreased presence | TUNEL-positive cells ([10]; PP2 5 μM 48 h then IFN-γ and FasL, without PP2 37%): 8% | PP2 in serum ([11]; 1 mg/kg, 1 h after administration): no detectable PP2 | PP2 in liver ([11]; after 4 h, male or female mice): no detectable PP2 | PP2 levels in male mouse liver compared to female mouse liver ([11]; as a function of time): significantly higher | PP2 in liver ([11]; male and female FVB/N mice, 1 mg/kg, 1 h after administration): detected | liver TUNEL-positive cells (K18 R90C mice [6]; PP2 1 mg/kg ip 4d, Fas challenge): fewer TUNEL-positive cells | SRC phosphorylation at stimulatory phospho-site Y416 in liver (K18 R90C mice [6]; female livers): not female | hepatocyte keratin filament organization (K18 R90C mice [6]; female livers): not female | ALT levels (K18 R90C mice [6]; [15]): not female | parenchymal liver hemorrhage (K18 R90C mice [6]; [15]): not female | SRC phosphorylation at stimulatory phospho-site Y416 in liver (K18 R90C mice [6]; male livers): decreased | hepatocyte keratin filament organization (K18 R90C mice [6]; male livers): normalized keratin filaments | ALT levels (K18 R90C mice [6]; [16]): improved | parenchymal liver hemorrhage (K18 R90C mice [6]; [16]): improved | increase in serum alanine aminotransferase (ALT) level after Fas treatment (K18 R90C mice [6]; male mice): significantly reduced | okadaic acid-induced hyperphosphorylation of K18/K8 (K18 and K8 [12]; A549 cells, PP2 5 μM 48 h, okadaic acid 1 μg/mL): reversed | decrease of global phosphorylation of K8 (K18 and K8 [12]; [17]): 38% | decrease of global phosphorylation of K18 (K18 and K8 [12]; [17]): 43% | K18 S34 and K8 S432 phosphorylation (K18 and K8 [12]; immunoblot, PP2 5 μM 48 h): significant decrease | tested necrosis markers (K18 R90C mice [13]; PP2 vs vehicle): no significant difference | histologic protection (K18 R90C mice [13]; male compared with female PP2-treated mice): significant histologic protection | tolerability in cells (A549 cells): not well tolerated
